Measurements as given in patent US20230257383A1, “COMPOUND SERVING AS BTK INHIBITOR, PREPARATION METHOD THEREFOR, AND USE THEREOF” (CHENGDU HYPERWAY PHARMACEUTICALS CO., LTD., priority 2020, published 2023).
pIC50: −log10 of the molar value.

What was measured:
[1] = Liver microsome metabolic stability test (rat); format: in vitro ADME; details: for microsomal CLint: liver microsomes, read-out: CLint (μL/min/mg) Rat
Method: (§1) 1: To the sample wells of T0, T5, T10, T20, T30, T60 and NCF60, 10 μL of the test or reference working solution and 80 μL of microsome working solution (hepatic microsome with a protein concentration of 0.5 mg/mL) were added, and to Blank60 well, only the microsome working solution was added. Then samples of the Blank60, T5, T10, T20, T30 and T60 other than TO and NCF60 were placed in a 37° C. water bath and pre-incubated for about 10 min.
(§2) 2: To the TO sample well, 300 μL of stop solution (containing 200 ng/mL tolbutamide and 200 ng/mL labetalol in acetonitrile solution) was added first, followed by 10 μL of NADPH regeneration system working solution.
(§3) 3: After the pre-incubation of Blank60, T5, T10, T20, T30 and T60 incubation plates, 10 μL of NADPH regeneration system working solution was added to each sample well to start the reaction, and 10 μL of 100 mM potassium phosphate buffer was added to the NCF60 sample well.
(§4) 4: After incubation for an appropriate time (such as 5, 10, 20, 30 and 60 min), to each test sample well and control well of the Blank60, T5, T10, T20, T30, T60 and NCF60 plates, 300 μL of stop solution was added to terminate the reaction.
(§5) 5: All sample plates were shaken to mix well and centrifuged at 4000 rpm for 20 min, and 100 μL of the supernatant of the test sample or control sample was taken and diluted with 300 μL of pure water for LC-MS/MS analysis.
(§6) 6: Data analysis: T1/2 and CLint(mic) (μL/min/mg) values were calculated according to the first-order elimination kinetics. The first-order elimination kinetics equation was: […]

[2] = Pharmacokinetic test, oral, SD rats; format: in vivo; details: oral 10 mg/kg
Method: Each test compound was administered orally (10 mg/kg, 3 rats in each group) to SD rats for pharmacokinetic study. […] Animals were fasted overnight before oral administration, and fed again after 4 h of administration. […] At each collection time point, 3 whole blood samples were collected at a the collection volume of about 0.2-0.3 mL. […] The collected plasma was stored at −20° C. before analysis. 20 μL of plasma sample was added into a 1.6 mL 96-well deep-well plate, added with 200 μL of working internal standard solution (the same volume of vehicle was added to the blank instead of internal standard), vortexed for 1 min, and centrifuged at 5800 rpm for 10 min. 100 μL of the supernatant was added to a 96-well injection plate for LC-MS/MS analysis.

[3] = Liver microsome metabolic stability test (human); format: in vitro ADME; details: for microsomal CLint: liver microsomes, read-out: CLint (μL/min/mg) Human
Method: as §1, §2, §3, §4, §5, §6

TMD8 cell proliferation = assay: In vitro cell proliferation inhibitory activity test (CTG), TMD8; format: cell-based; details: Homo sapiens, TMD8, 72 h, TMD8 cells
Method: (§7) Test Example 4: In Vitro Cell Proliferation Inhibitory Activity Test
(§8) Cells were cultured in 1640 medium, added with 10% inactivated FBS and 1% double antibiotics, and cultured at 37° C. and 5% CO2.
(§9) (1) Cells were routinely cultured until the cell density was 80%-90%, and the cells were harvested when their number reached the requirement.
(§10) (2) Cells were resuspended with corresponding culture medium, counted, and prepared into cell suspension at appropriate density.
(§11) (3) The cell suspension was added to a 96-well plate, 100 μL per well.
(§12) (4) Cells were cultured overnight in a 37° C., 5% CO2 incubator.
(§13) (1) The compounds to be tested were diluted with DMSO to make a stock solution with a final concentration of 20 mM for later use.
(§14) (2) The stock solution was diluted 10 times from 20 mM to 2 mM with DMSO, and then diluted 3 times from 2 mM to 9 concentrations.
(§15) (3) The blank control wells were cells plus 0.5% DMSO, as high-reading control wells.
(§16) (4) Wells with no cells and only medium were used as low-reading control wells.
(§17) 4: Cell treatment with compound
(§18) (1) 24 h after the cells were plated, the compounds acted alone, and 99 μL of growth medium was added to each well, followed by 1 μL of the compound prepared in step 3. The plate was shaken gently to mix uniformly, and then placed in a 37° C., 5% CO2 incubator.
(§19) (2) The cell plate was placed in an incubator for 72 h.
(§20) 5: Detection by CTG method
(§21) (1) The cell plate to be tested was placed at room temperature for 30 min, and 100 μL of medium was discarded from each well.
(§22) (2) 100 μL of CTG reagent (CelltiterGlo kit) was added to each well, placed on a fast shaker for 2 min, and stood at room temperature in the dark for 30 min.
(§23) (3) The chemiluminescent signal value was read with the Envision instrument.
(§24) IC50 was calculated by using GraphPad Prism 8 software. The IC50 (half inhibitory concentration) of the compound was derived using the following nonlinear fitting formula, and the results are shown in the following table:
(§25) Y=Bottom+(Top−Bottom)/(1+10^((Log IC50−X)×HillSlope))
(§26) X: log value of compound concentration, Y: inhibition rate (% inhibition)
(§27) Inhibition rate (% inhibition)=(reading of high-reading control well-reading of compound well)/(reading of high-reading control well-reading of low-reading control well)×100

BT474 cell proliferation = assay: In vitro cell proliferation inhibitory activity test (CTG), BT474; format: cell-based; details: Homo sapiens, BT-474, BT474 cell proliferation
Method: as §7, §8, §9, §10, §11, §12, §13, §14, §15, §16, §17, §18, §19, §20, §21, §22, §23, §24, §25, §26, §27

Row | Structure (SMILES) | microsomal CLint [1] | microsomal CLint [3] | pIC50 (BT474 cell proliferation) | other results
1 | Nc1nccn2c([C@@H]3CC[C@H](CO)OC3)nc(-c3ccc(C(=O)Nc4ccccn4)cc3)c12 (single isomer, unassigned) [Example 2-A-P1] | – | – | – | CLint (μL/min/mg) Rat [1]: <9.6 µL/min/mg; % Remaining (60 min) Rat [1]: 95.5%; AUC(0-∞) [2]: 77004 ng·h/mL; CLint (μL/min/mg) Human [3]: <9.6 µL/min/mg; % Remaining (60 min) Human [3]: 122.5%
2 | COc1ccccc1C(=O)NCc1ccc(-c2nn(C3CCC(CO)OC3)c3ncnc(N)c23)cc1 (single isomer, unassigned) [Example 60-B] | – | – | – | Cl [2]: 188.82 mL/min/kg
3 | Nc1nccn2c(C3CCC(CO)OC3)nc(-c3ccc(C(=O)Nc4cc(C(F)(F)F)ccn4)cc3)c12 (single isomer, unassigned) [Example 109-P1] | – | – | – | pIC50 (TMD8 cell proliferation): 7.91
4 | Nc1nccn2c(C3CC[C@@H](CO)OC3)nc(-c3ccc(C(=O)Nc4ccccn4)cc3F)c12 (some centres unmarked) [Example 1-B] | – | – | – | CLint (μL/min/mg) Rat [1]: 18.2 µL/min/mg; % Remaining (60 min) Rat [1]: 63.7%; CLint (μL/min/mg) Human [3]: <9.6 µL/min/mg; % Remaining (60 min) Human [3]: 99.9%
5 | COc1cccc(Oc2ccc(-c3nc(C4CCC(CO)OC4)n4ccnc(N)c34)cc2)c1F (centres unmarked) [Example 5] | 122 µL/min/mg | 38.8 µL/min/mg | – | –
6 | Nc1nccn2c(C3CCC(CO)OC3)nc(-c3ccc(Oc4cccc(F)c4F)cc3)c12 (centres unmarked) [Example 8] | 66.5 µL/min/mg | 33.9 µL/min/mg | – | –
7 | Nc1nccn2c(C3CCC(CO)OC3)nc(-c3ccc(Oc4cccc(Cl)c4F)cc3)c12 (centres unmarked) [Example 9] | 114 µL/min/mg | 48.4 µL/min/mg | – | % Remaining (60 min) Rat [1]: 3.2%; % Remaining (60 min) Human [3]: 24.5%
8 | COc1cccc(Oc2ccc(-c3nc(C4CCC(CO)OC4)n4c(Cl)cnc(N)c34)cc2)c1F (centres unmarked) [Example 12] | 118 µL/min/mg | 124 µL/min/mg | – | % Remaining (60 min) Rat [1]: 3.0%; % Remaining (60 min) Human [3]: 2.6%
9 | Nc1nccn2c(C3CCC(CO)OC3)nc(-c3ccc(Oc4ccccc4)cc3)c12 (centres unmarked) [Example 16] | 63.9 µL/min/mg | 36.9 µL/min/mg | – | % Remaining (60 min) Rat [1]: 14.6%; % Remaining (60 min) Human [3]: 31.8%
10 | Nc1nccn2c(C3CCC(CO)OC3)nc(-c3ccc(Oc4cccc(C(F)(F)F)c4F)cc3)c12 (centres unmarked) [Example 19] | 83.1 µL/min/mg | 47.1 µL/min/mg | – | –
11 | Cc1cccc(Oc2ccc(-c3nc(C4CCC(CO)OC4)n4ccnc(N)c34)cc2)c1F (centres unmarked) [Example 24] | 255 µL/min/mg | 74.9 µL/min/mg | – | –
12 | Nc1nccn2c(C3CCC(CO)OC3)nc(-c3ccc(C(=O)c4ccccc4)cc3)c12 (centres unmarked) [Example 26] | 46.1 µL/min/mg | 31.1 µL/min/mg | – | –
13 | Nc1nccn2c(C34CCC(CO)(CC3)OC4)nc(-c3ccc(C(=O)Nc4ccccn4)cc3)c12 [Example 34] | < 9.6 µL/min/mg | < 9.6 µL/min/mg | – | pIC50 (TMD8 cell proliferation): 7.24
14 | Nc1nccn2c(C3CCC(CO)OC3)nc(-c3ccc(Oc4c(F)cccc4F)cc3)c12 (centres unmarked) [Example 64] | 81.6 µL/min/mg | 36.8 µL/min/mg | – | –
15 | Cc1ccnc(NC(=O)c2ccc(-c3nc(C4CCC(CO)OC4)n4ccnc(N)c34)cc2)c1 (centres unmarked) [Example 70] | 30.3 µL/min/mg | 13.2 µL/min/mg | – | –
16 | COc1cccc(Oc2ccc(-c3nc(C4CCC(CO)OC4)n4ccnc(N)c34)cc2)c1 (centres unmarked) [Example 101] | 29.8 µL/min/mg | < 9.6 µL/min/mg | – | –
17 | N#Cc1ccnc(NC(=O)c2ccc(-c3nc(C4CCC(CO)OC4)n4ccnc(N)c34)cc2)c1 (centres unmarked) [Example 103] | < 9.6 µL/min/mg | < 9.6 µL/min/mg | – | Cl [2]: 16.67 mL/min/kg; pIC50 (TMD8 cell proliferation): 7.60

Row | Structure (SMILES) | microsomal CLint [1] | microsomal CLint [3] | pIC50 (BT474 cell proliferation) | other results
18 | Nc1nccn2c(C3CCC(CO)OC3)nc(-c3ccc(Cc4ccccc4)cc3)c12 (centres unmarked) [Example 106] | 29.5 µL/min/mg | 13.1 µL/min/mg | – | pIC50 (TMD8 cell proliferation): 7.31
19 | Nc1nccn2c(C3CCC(CO)OC3)nc(-c3ccc(C(F)(F)c4ccccc4)cc3)c12 (centres unmarked) [Example 111] | 26.1 µL/min/mg | 10.9 µL/min/mg | – | –
20 | Nc1nccn2c(C34CCC(CO)(CC3)OC4)nc(-c3ccc(C(F)(F)c4ccccc4)cc3F)c12 [Example 114] | – | – | 6.76 | –
21 | COc1cccc(Oc2ccc(-c3nc(C45CCC(CO)(CC4)OC5)n4ccnc(N)c34)c(F)c2)c1C#N [Example 115] | – | – | – | pIC50 (TMD8 cell proliferation): 8.21
22 | COc1cccc(C(F)(F)c2ccc(-c3nc(C45CCC(CO)(CC4)OC5)n4ccnc(N)c34)cc2)c1F [Example 129] | – | – | 6.68 | –
23 | Cc1cccc(C(F)(F)c2ccc(-c3nc(C45CCC(CO)(CC4)OC5)n4ccnc(N)c34)cc2)c1F [Example 139] | – | – | 6.68 | –
24 | Nc1nccn2c(C34CCC(CO)(CC3)OC4)nc(-c3ccc(C(F)(F)c4ccc(F)c(Cl)c4)cc3)c12 [Example 140] | – | – | 6.30 | –
25 | Nc1nccn2c(C34CCC(CO)(CC3)OC4)nc(-c3ccc(C(F)(F)c4cccc(C5CC5)c4)cc3)c12 [Example 143] | – | – | 6.33 | –
26 | Nc1nccn2c(C34CCC(CO)(CC3)OC4)nc(-c3ccc(C(F)(F)c4c(F)c(F)cc(F)c4F)cc3)c12 [Example 144] | – | – | 6.72 | –
27 | Cc1c(F)cccc1C(F)(F)c1ccc(-c2nc(C34CCC(CO)(CC3)OC4)n3ccnc(N)c23)cc1 [Example 147] | – | – | 6.42 | –
28 | Nc1nccn2c(C34CCC(CO)(CC3)OC4)nc(-c3ccc(C(F)(F)c4c(F)cccc4F)cc3)c12 [Example 153] | – | – | 6.92 | –
29 | Nc1nccn2c(C34CCC(CO)(CC3)OC4)nc(-c3ccc(C(F)(F)c4ccccc4F)c(F)c3)c12 [Example 156] | – | – | 6.57 | –
30 | Nc1nccn2c(C34CCC(CO)(CC3)OC4)nc(-c3ccc(C(O)(c4ccccc4)C(F)(F)F)cc3)c12 (centres unmarked) [Example 157] | – | – | 5.64 | –
31 | Nc1nccn2c(C34CCC(CO)(CC3)OC4)nc(-c3ccc(C(F)(c4ccccc4)C(F)(F)F)cc3)c12 (centres unmarked) [Example 158] | – | – | 5.31 | –
32 | Nc1nccn2c(C34CCC(CO)(CC3)OC4)nc(-c3ccc(C(c4ccccc4)(C(F)(F)F)C(F)(F)F)cc3)c12 [Example 159] | – | – | < 6.00 | –
33 | CS(=O)(=O)CCNCc1ccc(-c2ccc3ncnc(Nc4ccc(OCc5cccc(F)c5)c(Cl)c4)c3c2)o1 [Lapatinib] | – | – | 7.26 | –
